ChEMBL document CHEMBL3991601, “The target landscape of clinical kinase drugs” (Science, 2017)
Calls of active or inactive are those of the source. Rule as the data show it, for most assays here: actives have a measured Kd and inactives only a lower limit.

Key:
[1] = biological target: Tyrosine-protein kinase SYK (Homo sapiens, UniProt P43405)
[2] = biological target: Casein kinase I isoform alpha (Homo sapiens, UniProt P48729)
[3] = biological target: G protein-coupled receptor kinase 6 (Homo sapiens, UniProt P43250)
[4] = biological target: Tyrosine-protein kinase Yes (Homo sapiens, UniProt P07947)
[5] = biological target: Serine/threonine-protein kinase 10 (Homo sapiens, UniProt O94804)
[6] = biological target: Adenylate kinase 2, mitochondrial (Homo sapiens, UniProt P54819)
Aurora kinase A = biological target: T1, Aurora kinase A (Homo sapiens, UniProt O14965)
T1 sequence (O14965 whole entry): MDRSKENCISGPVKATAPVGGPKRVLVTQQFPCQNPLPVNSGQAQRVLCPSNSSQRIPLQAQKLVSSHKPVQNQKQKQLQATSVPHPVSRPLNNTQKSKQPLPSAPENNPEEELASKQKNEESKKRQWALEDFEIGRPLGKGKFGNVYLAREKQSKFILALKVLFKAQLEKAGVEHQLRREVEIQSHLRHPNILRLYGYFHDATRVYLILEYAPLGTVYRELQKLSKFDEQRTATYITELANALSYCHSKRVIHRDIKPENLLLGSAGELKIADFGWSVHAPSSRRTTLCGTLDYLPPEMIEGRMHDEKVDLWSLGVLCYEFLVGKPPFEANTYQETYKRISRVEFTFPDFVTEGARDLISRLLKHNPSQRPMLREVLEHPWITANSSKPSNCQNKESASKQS

[7] = biological target: T2, Glycogen phosphorylase, liver form (Homo sapiens, UniProt P06737); assay type: subcellular, K-562, COLO 205, SK-N-BE(2) and MV-4-11, Cell lysate; settings: read-out: Kd apparent
T2 sequence (P06737 whole entry): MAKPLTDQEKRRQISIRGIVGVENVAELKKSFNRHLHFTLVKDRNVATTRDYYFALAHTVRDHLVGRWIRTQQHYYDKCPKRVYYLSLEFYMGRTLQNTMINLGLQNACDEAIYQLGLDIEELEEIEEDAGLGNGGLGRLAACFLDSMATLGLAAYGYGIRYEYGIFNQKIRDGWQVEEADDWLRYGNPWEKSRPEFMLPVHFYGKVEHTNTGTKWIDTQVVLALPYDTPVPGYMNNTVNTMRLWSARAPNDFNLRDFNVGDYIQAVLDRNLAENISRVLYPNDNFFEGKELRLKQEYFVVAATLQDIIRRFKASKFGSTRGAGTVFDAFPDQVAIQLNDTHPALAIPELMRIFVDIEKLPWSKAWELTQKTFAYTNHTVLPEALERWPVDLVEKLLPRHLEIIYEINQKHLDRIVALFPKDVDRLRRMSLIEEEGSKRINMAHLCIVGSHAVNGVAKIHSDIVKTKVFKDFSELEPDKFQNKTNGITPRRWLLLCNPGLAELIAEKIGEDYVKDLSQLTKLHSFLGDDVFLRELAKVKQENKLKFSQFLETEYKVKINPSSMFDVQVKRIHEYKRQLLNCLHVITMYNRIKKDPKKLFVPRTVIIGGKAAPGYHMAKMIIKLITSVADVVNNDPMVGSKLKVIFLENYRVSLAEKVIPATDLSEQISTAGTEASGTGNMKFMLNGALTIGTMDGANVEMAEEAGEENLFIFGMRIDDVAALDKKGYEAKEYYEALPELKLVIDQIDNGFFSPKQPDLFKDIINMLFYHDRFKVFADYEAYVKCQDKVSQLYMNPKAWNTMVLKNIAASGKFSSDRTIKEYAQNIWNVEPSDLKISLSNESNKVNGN

[8] = biological target: Dual specificity testis-specific protein kinase 1 (Homo sapiens, UniProt Q15569)
[9] = biological target: T3, Uncharacterized protein FLJ45252 (Homo sapiens, UniProt Q6ZSR9); settings: read-out: Kd apparent; k-562, colo 205, sk-n-be(2) and mv-4-11
T3 sequence (Q6ZSR9 whole entry): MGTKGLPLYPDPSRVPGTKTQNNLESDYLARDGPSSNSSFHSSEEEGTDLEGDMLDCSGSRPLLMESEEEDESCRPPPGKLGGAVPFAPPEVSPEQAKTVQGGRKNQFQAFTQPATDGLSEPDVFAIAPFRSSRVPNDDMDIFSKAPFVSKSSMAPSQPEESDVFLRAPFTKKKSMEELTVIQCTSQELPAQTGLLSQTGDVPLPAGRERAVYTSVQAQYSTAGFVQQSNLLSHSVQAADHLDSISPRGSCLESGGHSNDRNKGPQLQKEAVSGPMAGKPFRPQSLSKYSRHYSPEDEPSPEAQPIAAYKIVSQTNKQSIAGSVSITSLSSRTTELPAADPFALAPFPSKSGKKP

[10] = biological target: PAS domain-containing serine/threonine-protein kinase (Homo sapiens, UniProt Q96RG2)
[11] = biological target: AP2-associated protein kinase 1 (Homo sapiens, UniProt Q2M2I8)
Also: in the data inactive means no Kd found up to 30 µM.

Sequence of G protein-coupled receptor kinase 6 (P43250 whole entry): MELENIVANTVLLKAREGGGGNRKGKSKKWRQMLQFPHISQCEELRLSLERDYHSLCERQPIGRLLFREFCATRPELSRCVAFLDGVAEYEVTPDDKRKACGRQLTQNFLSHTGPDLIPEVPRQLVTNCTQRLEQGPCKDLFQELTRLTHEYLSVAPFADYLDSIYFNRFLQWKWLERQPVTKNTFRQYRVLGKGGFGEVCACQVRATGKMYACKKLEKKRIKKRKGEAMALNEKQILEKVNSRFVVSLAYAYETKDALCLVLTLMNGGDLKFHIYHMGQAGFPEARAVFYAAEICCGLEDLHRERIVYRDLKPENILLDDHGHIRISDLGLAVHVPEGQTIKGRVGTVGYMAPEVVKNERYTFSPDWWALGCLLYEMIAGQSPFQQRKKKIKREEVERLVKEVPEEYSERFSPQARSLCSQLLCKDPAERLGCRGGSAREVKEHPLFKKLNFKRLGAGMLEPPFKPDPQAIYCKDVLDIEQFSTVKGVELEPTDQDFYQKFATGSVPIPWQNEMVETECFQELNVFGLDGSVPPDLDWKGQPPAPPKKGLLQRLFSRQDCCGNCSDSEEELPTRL
Sequence of AP2-associated protein kinase 1 (Q2M2I8 whole entry): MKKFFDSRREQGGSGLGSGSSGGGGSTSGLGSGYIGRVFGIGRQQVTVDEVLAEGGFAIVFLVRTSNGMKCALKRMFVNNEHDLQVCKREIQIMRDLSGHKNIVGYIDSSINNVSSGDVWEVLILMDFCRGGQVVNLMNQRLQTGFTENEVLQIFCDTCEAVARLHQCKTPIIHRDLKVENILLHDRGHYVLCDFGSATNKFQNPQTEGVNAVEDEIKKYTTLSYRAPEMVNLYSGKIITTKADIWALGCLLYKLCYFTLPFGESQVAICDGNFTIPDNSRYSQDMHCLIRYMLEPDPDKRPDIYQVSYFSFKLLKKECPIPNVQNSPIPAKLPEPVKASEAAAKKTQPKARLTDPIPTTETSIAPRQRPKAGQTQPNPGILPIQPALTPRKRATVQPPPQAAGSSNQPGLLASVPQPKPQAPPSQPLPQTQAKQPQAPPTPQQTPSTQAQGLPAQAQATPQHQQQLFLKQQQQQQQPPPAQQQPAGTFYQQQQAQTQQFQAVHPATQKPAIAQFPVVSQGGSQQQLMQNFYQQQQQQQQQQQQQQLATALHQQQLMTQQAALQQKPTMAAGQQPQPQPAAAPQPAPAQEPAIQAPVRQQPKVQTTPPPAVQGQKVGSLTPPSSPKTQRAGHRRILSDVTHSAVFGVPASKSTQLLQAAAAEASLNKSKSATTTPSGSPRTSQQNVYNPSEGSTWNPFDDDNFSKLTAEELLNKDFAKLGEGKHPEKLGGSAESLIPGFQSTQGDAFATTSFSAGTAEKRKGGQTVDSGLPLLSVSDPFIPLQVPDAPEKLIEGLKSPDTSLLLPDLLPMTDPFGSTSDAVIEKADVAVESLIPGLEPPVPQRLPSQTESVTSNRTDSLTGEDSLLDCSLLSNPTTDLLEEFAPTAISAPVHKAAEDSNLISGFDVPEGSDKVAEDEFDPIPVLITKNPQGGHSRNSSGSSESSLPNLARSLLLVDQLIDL
Sequence of Casein kinase I isoform alpha (P48729 whole entry, canonical isoform): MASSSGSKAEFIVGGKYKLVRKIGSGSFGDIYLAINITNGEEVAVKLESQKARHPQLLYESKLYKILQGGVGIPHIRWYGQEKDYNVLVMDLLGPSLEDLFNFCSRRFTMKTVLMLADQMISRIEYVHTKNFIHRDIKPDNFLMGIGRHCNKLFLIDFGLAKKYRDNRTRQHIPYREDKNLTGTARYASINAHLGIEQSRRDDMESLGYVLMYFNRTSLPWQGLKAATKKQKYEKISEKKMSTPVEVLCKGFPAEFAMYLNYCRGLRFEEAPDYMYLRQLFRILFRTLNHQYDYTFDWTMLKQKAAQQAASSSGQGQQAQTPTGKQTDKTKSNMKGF
Sequence of PAS domain-containing serine/threonine-protein kinase (Q96RG2 whole entry, the tested form may be a part): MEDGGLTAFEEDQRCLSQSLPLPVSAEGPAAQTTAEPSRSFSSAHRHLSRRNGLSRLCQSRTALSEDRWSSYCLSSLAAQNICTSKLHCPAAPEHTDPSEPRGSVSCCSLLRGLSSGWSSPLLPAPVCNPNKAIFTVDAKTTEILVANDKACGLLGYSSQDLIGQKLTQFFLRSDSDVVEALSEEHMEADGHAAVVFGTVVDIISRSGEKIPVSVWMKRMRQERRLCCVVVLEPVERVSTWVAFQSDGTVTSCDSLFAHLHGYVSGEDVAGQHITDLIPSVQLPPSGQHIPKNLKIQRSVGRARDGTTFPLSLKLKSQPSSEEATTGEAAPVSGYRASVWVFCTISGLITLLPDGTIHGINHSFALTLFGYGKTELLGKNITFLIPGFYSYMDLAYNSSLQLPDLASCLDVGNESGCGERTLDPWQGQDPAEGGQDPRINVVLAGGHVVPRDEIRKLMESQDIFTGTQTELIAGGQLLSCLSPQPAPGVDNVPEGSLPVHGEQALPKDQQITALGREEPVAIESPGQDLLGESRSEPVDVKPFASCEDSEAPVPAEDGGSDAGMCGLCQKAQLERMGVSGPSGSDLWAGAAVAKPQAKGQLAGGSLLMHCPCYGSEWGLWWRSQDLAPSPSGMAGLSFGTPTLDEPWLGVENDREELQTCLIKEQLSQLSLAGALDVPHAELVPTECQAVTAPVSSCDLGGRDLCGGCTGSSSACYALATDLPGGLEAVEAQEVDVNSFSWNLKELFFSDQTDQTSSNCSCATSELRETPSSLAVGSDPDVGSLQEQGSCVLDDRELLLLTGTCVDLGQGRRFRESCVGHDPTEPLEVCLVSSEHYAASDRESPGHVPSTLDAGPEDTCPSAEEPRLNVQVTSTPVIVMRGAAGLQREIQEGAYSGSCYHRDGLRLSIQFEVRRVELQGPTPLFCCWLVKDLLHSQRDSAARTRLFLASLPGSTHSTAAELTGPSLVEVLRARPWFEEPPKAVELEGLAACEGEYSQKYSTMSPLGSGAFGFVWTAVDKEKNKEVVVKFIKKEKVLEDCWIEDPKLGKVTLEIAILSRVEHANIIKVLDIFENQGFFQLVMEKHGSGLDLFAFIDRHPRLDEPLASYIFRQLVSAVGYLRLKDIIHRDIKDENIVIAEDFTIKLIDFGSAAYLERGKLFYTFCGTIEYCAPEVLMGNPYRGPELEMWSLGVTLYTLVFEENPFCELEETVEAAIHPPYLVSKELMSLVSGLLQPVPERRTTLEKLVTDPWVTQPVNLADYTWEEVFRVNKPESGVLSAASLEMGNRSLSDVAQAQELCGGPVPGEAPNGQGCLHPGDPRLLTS
Sequence of Tyrosine-protein kinase Yes (P07947 whole entry): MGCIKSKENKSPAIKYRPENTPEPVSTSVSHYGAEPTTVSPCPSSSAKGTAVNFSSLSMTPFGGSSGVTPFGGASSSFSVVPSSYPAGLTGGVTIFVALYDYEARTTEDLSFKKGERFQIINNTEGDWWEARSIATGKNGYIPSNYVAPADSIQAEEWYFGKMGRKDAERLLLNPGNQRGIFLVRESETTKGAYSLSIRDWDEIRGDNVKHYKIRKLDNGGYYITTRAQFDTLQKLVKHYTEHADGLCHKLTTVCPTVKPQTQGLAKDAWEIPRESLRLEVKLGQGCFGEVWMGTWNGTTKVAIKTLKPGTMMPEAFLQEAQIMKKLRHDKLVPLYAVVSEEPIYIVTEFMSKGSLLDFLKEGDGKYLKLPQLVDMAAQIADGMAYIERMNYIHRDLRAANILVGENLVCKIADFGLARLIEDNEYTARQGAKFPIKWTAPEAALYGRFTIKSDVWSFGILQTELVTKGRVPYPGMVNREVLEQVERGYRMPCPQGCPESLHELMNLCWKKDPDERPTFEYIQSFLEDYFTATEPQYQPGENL
Sequence of Serine/threonine-protein kinase 10 (O94804 whole entry): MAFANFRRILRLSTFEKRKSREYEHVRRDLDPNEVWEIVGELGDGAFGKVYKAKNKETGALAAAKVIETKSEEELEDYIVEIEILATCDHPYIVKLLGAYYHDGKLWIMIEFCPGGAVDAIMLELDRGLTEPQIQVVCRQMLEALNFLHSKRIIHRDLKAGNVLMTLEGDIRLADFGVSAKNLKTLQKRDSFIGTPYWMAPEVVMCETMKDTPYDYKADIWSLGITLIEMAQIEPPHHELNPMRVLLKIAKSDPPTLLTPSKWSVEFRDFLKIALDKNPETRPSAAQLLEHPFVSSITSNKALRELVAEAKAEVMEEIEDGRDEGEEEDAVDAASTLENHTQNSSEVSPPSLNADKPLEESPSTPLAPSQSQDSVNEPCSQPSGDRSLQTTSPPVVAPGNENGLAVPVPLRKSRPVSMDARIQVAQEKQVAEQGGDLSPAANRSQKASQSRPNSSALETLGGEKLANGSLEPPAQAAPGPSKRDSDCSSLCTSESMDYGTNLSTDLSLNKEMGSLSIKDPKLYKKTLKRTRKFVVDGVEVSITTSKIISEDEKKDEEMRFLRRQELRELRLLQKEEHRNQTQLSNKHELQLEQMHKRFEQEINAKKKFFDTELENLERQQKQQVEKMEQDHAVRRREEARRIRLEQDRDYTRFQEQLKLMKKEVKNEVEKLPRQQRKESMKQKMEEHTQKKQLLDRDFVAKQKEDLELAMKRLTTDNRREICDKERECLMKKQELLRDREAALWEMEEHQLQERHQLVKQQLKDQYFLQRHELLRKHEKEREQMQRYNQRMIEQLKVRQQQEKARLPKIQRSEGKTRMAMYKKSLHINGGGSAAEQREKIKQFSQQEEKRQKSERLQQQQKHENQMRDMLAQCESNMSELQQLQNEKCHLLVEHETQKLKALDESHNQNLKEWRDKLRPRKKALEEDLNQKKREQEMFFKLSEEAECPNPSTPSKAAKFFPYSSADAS

Row | Kd [1] | Kd [2] | Kd [3] | Kd [4] | Kd [5] | Kd [6] | Kd (Aurora kinase A) | Kd [7] | Kd [8] | Kd [9] | Kd [10] | Kd [11] | SMILES
1 |  |  | > 30 µM (inactive) | > 30 µM (inactive) | > 30 µM (inactive) | > 30 µM (inactive) |  | > 30 µM (inactive) | > 30 µM (inactive) | > 30 µM (inactive) | > 30 µM (inactive) | > 30 µM (inactive) | COc1cc(Nc2ncc3c(n2)-c2ccc(Cl)cc2C(c2c(F)cccc2OC)=NC3)ccc1C(=O)O [ALISERTIB]
2 | > 30 µM (inactive) | > 30 µM (inactive) | > 30 µM (inactive) | > 30 µM (inactive) | > 30 µM (inactive) | > 30 µM (inactive) | > 30 µM (inactive) | > 30 µM (inactive) |  | > 30 µM (inactive) | > 30 µM (inactive) | > 30 µM (inactive) | Cc1cc(C(=O)NOCCO)c(Nc2ccc(I)cc2F)n(C)c1=O [AZD-8330]
3 | > 30 µM (inactive) |  | > 30 µM (inactive) | > 30 µM (inactive) | > 30 µM (inactive) | > 30 µM (inactive) | > 30 µM (inactive) | > 30 µM (inactive) | > 30 µM (inactive) | > 30 µM (inactive) | > 30 µM (inactive) | > 30 µM (inactive) | Cc1cccc(-c2nn3c(c2-c2ccnc4ccc(C(N)=O)cc24)CCC3)n1 [GALUNISERTIB]
4 | > 30 µM (inactive) |  | > 30 µM (inactive) | > 30 µM (inactive) | > 30 µM (inactive) | > 30 µM (inactive) |  | > 30 µM (inactive) |  |  | > 30 µM (inactive) | > 30 µM (inactive) | CCn1cc(-c2ccnc3[nH]c(-c4cccc(CN(C)C)c4)cc23)c(-c2ccc(NC(=O)N(C)C)cc2)n1 [GSK-1070916]
5 | > 30 µM (inactive) | 0.995 µM (active) | > 30 µM (inactive) | 3.79 µM (active) | > 30 µM (inactive) | > 30 µM (inactive) | > 30 µM (inactive) | > 30 µM (inactive) | > 30 µM (inactive) |  | > 30 µM (inactive) | 7.41 µM (active) | CNC(=O)c1nn(C)c2c1C(C)(C)Cc1cnc(Nc3ccc(N4CCN(C)CC4)cc3)nc1-2 [MILCICLIB]
6 |  |  | > 30 µM (inactive) | 0.881 µM (active) | 0.515 µM (active) | > 30 µM (inactive) |  | > 30 µM (inactive) | 1.42 µM (active) | > 30 µM (inactive) | > 30 µM (inactive) | > 30 µM (inactive) | NC(=O)c1c(OCc2c(F)cc(Br)cc2F)nsc1NC(=O)NCCCCN1CCCC1 [OSI-632]
7 | > 30 µM (inactive) | > 30 µM (inactive) | > 30 µM (inactive) | 0.171 µM (active) | 0.379 µM (active) | > 30 µM (inactive) | 0.003 µM (active) | > 30 µM (inactive) | > 30 µM (inactive) |  | > 30 µM (inactive) | 0.138 µM (active) | CC(C)c1cc(CNc2nc(Nc3cc(C4CC4)[nH]n3)cc(N3CCN(C)CC3)n2)on1 [XL-228]

Second part, the compound before the results:

Row | SMILES | Kd [1] | Kd [2] | Kd [3] | Kd [4] | Kd [5] | Kd [6] | Kd (Aurora kinase A) | Kd [7] | Kd [8] | Kd [9] | Kd [10] | Kd [11]
8 | COCc1c(-c2ccc(NC(=O)Nc3cc(C(F)(F)F)ccc3F)c(F)c2)c2c(N)ncnn2c1CN1CCOCC1 | > 30 µM (inactive) | > 30 µM (inactive) | > 30 µM (inactive) | > 30 µM (inactive) | > 30 µM (inactive) | > 30 µM (inactive) | > 30 µM (inactive) | > 30 µM (inactive) | > 30 µM (inactive) | > 30 µM (inactive) | > 30 µM (inactive) | > 30 µM (inactive)
9 | O=C(Nc1c[nH]nc1-c1nc2cc(CN3CCOCC3)ccc2[nH]1)NC1CC1 [AT-9283] | 0.116 µM (active) | > 30 µM (inactive) | 13.6 µM | 0.574 µM (active) | 0.082 µM (active) | > 30 µM (inactive) |  | > 30 µM (inactive) | > 30 µM (inactive) | 0.024 µM (active) | > 30 µM (inactive) | 0.017 µM (active)
10 | COc1c(OCCCN2CCOCC2)ccc2c1N=C(NC(=O)c1cnc(N)nc1)N1CCN=C21 [COPANLISIB] | > 30 µM (inactive) | > 30 µM (inactive) | > 30 µM (inactive) | > 30 µM (inactive) | > 30 µM (inactive) | > 30 µM (inactive) | > 30 µM (inactive) | > 30 µM (inactive) | > 30 µM (inactive) |  | > 30 µM (inactive) | > 30 µM (inactive)
11 | CC(=O)NCC(=O)N1[C@@H]2CC[C@H]1c1ccc(Nc3ncc(C(F)(F)F)c(NC4CCC4)n3)cc12 [PF-03814735] |  |  | > 30 µM (inactive) | > 30 µM (inactive) | 0.309 µM (active) | > 30 µM (inactive) |  | > 30 µM (inactive) | > 30 µM (inactive) | 0.01 µM (active) | > 30 µM (inactive) | 0.009 µM (active)
12 | CNC(=O)c1cc(Oc2ccc(NC(=O)Nc3cc(C(C)(C)C)nn3-c3ccc4ncccc4c3)c(F)c2)ccn1 [REBASTINIB] | 1.83 µM (active) | > 30 µM (inactive) | > 30 µM (inactive) |  |  | > 30 µM (inactive) | > 30 µM (inactive) | > 30 µM (inactive) | > 30 µM (inactive) | > 30 µM (inactive) | > 30 µM (inactive) | > 30 µM (inactive)
13 | CN1CCN(CCOc2cc(OC3CCOCC3)c3c(Nc4c(Cl)ccc5c4OCO5)ncnc3c2)CC1 [SARACATINIB] | > 30 µM (inactive) | > 30 µM (inactive) | > 30 µM (inactive) |  | 11.7 µM (active) | > 30 µM (inactive) | > 30 µM (inactive) | > 30 µM (inactive) | > 30 µM (inactive) | > 30 µM (inactive) | > 30 µM (inactive) | > 30 µM (inactive)
14 | CCS(=O)(=O)c1cccc(-c2cc(C(=O)NC3CCN(C)CC3)c(C)c3[nH]c4ncc(C)cc4c23)c1 [TAK-901] | 4.66 µM (active) | > 30 µM (inactive) | 1.19 µM | 0.022 µM (active) | 0.949 µM (active) | > 30 µM (inactive) |  | > 30 µM (inactive) | > 30 µM (inactive) |  | > 30 µM (inactive) | > 30 µM (inactive)
15 | Cc1cc(Nc2ncnc3ccc(NC4=NC(C)(C)CO4)cc23)ccc1Oc1ccn2ncnc2c1 [TUCATINIB] | > 30 µM (inactive) |  | > 30 µM (inactive) | > 30 µM (inactive) | > 30 µM (inactive) | > 30 µM (inactive) | > 30 µM (inactive) | > 30 µM (inactive) | > 30 µM (inactive) | > 30 µM (inactive) | > 30 µM (inactive) | > 30 µM (inactive)
16 | C[C@@H](N)c1ccc(C(=O)Nc2ccnc3[nH]ccc23)cc1 [Y-39983] | > 30 µM (inactive) |  | > 30 µM (inactive) | > 30 µM (inactive) | > 30 µM (inactive) | > 30 µM (inactive) | > 30 µM (inactive) | > 30 µM (inactive) | > 30 µM (inactive) | 0.106 µM (active) | > 30 µM (inactive) | 0.122 µM (active)
